{"source": "patent US8460904B2", "about": "“Method of producing reduced coenzyme Q10” (Zhejiang Zhongning Business Co., Ltd., priority 2008, dated 2013)", "key": {"[1]": {"experiment": "Water-solubility after phosphorylation", "type": "physicochemical", "conditions": "usable on injection"}, "[2]": {"experiment": "Stability / shelf life of the obtained reduced coenzyme Q10", "type": "physicochemical"}}, "data": [{"smiles": "COc1c(O)c(C)c(C/C=C(\\C)CC/C=C(\\C)CC/C=C(\\C)CC/C=C(\\C)CC/C=C(\\C)CC/C=C(\\C)CC/C=C(\\C)CC/C=C(\\C)CC/C=C(\\C)CCC=C(C)C)c(O)c1OC", "note": "[reduced coenzyme Q10]", "values": [{"measurement": "water-solubility", "setting": "[1]", "result": "completely water soluble"}, {"measurement": "shelf life", "setting": "[2]; below 50° C.", "result": "over 2 years"}, {"measurement": "stability in phosphoric acid solution", "setting": "[2]; phosphoric acid solution of pH6.0-8.2", "result": "remains its qualities"}]}]}
